The source of these data is ChEMBL document CHEMBL1201862, “PubChem BioAssay data set” (2004).

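Where inhibition never reached the appropriate level, the endpoint shown equals the highest concentration tested. Otherwise, values were interpolated linearly from a five-concentration, 48-hour dose response in 96-well plates. GI50 is the concentration that inhibits growth by half.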 Calls of active or inactive are those of the source. No stated cut-off is given here; in the data, active = GI50 up to about 1.1 µM and inactive = higher. A value given as a limit tells only on which side of the number the result lay.

As a reminder, the GI50 is the concentration at which growth is held to half of that of the control.

Among the test systems are NCI-H226; NCI-H522; U-251; KM12; Malme-3M; HL-60; SR; CAKI-1; HOP-62; SN12C; SF-295; COLO 205; MCF7; M14; SW-620; OVCAR-8; SF-539; SK-MEL-5; TK-10; RPMI-8226.
What all share (test): DTP human tumour cell line panel, 48 h

Turning to `O=c1[nH]c(C23CC4CC(CC(C4)C2)C3)cc2c1c(=O)oc1ccccc12`, the GI50 is 2.19 µM (inactive) in the test on NCI-H226; 2.58 µM (inactive) in the test on NCI-H522; 2.53 µM (inactive) in the test on U-251; 14.5 µM (inactive) in the test on KM12; 3.65 µM (inactive) in the test with Malme-3M; 29.4 µM (inactive) with HL-60. Besides, the GI50 in the test on SR was 0.366 µM (active); in the test on CAKI-1 it was 1.86 µM (inactive); in the test on HOP-62, 2.7 µM (inactive); in the test with SN12C it was 9.18 µM (inactive); in the test with SF-295 it was 3.71 µM (inactive); in the test on COLO 205, 10 µM (inactive). The GI50 was 6 µM (inactive) with MCF7; 8.65 µM (inactive) with M14; 7.59 µM (inactive) in the test on SW-620; 3.19 µM (inactive) in the test on OVCAR-8; 4.53 µM (inactive) with SF-539; 4.6 µM (inactive) with SK-MEL-5. Besides, the results for the GI50 in the test with TK-10 and with RPMI-8226 were 3.43 µM (inactive) and 3.08 µM (inactive), respectively.
On to `O=c1c(F)cn2c(=O)n1CCCCCCCn1c(=O)c(F)cn(c1=O)CCCCCCC2`, for which the GI50 in the test on NCI-H226 is 54.5 µM (inactive); in the test with NCI-H522, > 100 µM (inactive); in the test with U-251 it was > 100 µM (inactive); with KM12, 73.1 µM (inactive); in the test on Malme-3M, 35.7 µM (inactive); in the test with HL-60, 49.5 µM (inactive). Besides, the GI50 with SR is 39.4 µM (inactive); in the test on CAKI-1, 78.3 µM (inactive); with HOP-62, 46.6 µM (inactive); in the test with SN12C, > 100 µM (inactive); with SF-295, > 100 µM (inactive); in the test with COLO 205, > 100 µM (inactive). Further, the GI50 in the test with MCF7 was > 100 µM (inactive); with M14, 36.1 µM (inactive); with SW-620, > 100 µM (inactive); in the test with OVCAR-8, 59.4 µM (inactive); in the test with SF-539, 33.1 µM (inactive); with SK-MEL-5 it was 39.9 µM (inactive). Also, the GI50 is 90.2 µM (inactive) in the test with TK-10 and > 100 µM (inactive) in the test with RPMI-8226.
`C[N+](C)([O-])CCCNc1c2ccccc2nc2cccc([N+](=O)[O-])c12`: the GI50 is 0.313 µM (active) in the test on NCI-H226; 0.115 µM (active) in the test on NCI-H522; 0.305 µM (active) with U-251; 0.412 µM (active) in the test with KM12; 0.173 µM (active) with Malme-3M; 0.351 µM (active) with HL-60. Also, the GI50 in the test on SR was 0.0653 µM (active); in the test on CAKI-1, 1.72 µM (inactive); in the test with HOP-62, 0.385 µM (active); in the test on SN12C, 0.265 µM (active); with SF-295, 0.592 µM (active); with COLO 205, 0.143 µM (active). The concentration for 50% growth inhibition (GI50) was 0.113 µM (active) in the test on MCF7; 0.258 µM (active) in the test with M14; 0.203 µM (active) in the test on SW-620; 0.635 µM (active) with OVCAR-8; 1.07 µM (active) with SF-539; 0.161 µM (active) with SK-MEL-5. The 50% growth inhibitory concentration (GI50) in the test with TK-10 is 0.982 µM (active); in the test with RPMI-8226, 0.313 µM (active).
Turning to `COc1ccc(C2C3=C(COC3=O)OC(C)(C)Oc3cc4c(cc32)OCO4)cc1OC` (stereo not given), the GI50 in the test with NCI-H226 is > 78.7 µM (inactive); in the test with NCI-H522, 32.4 µM (inactive); in the test on U-251, 39.1 µM (inactive); in the test on KM12 it was 24 µM (inactive); in the test on Malme-3M, 29.7 µM (inactive); in the test on HL-60, 29.2 µM (inactive). For the same compound, the GI50 in the test on SR is 29.2 µM (inactive); in the test with CAKI-1, 43.6 µM (inactive); in the test on HOP-62 it was 63.5 µM (inactive); in the test with SN12C it was 51.9 µM (inactive); with SF-295 it was 29 µM (inactive); in the test on COLO 205, 20.9 µM (inactive). For the same compound, the GI50 was 40.1 µM (inactive) in the test with MCF7; 28.2 µM (inactive) with M14; 33.3 µM (inactive) in the test on SW-620; 46.1 µM (inactive) with OVCAR-8; 29.1 µM (inactive) with SF-539; 30.3 µM (inactive) in the test with SK-MEL-5. Besides, the GI50 in the test with TK-10 is 50.1 µM (inactive); with RPMI-8226, 41.6 µM (inactive).
